In patent US4835190A, “Phenolic thioethers as inhbitors of 5-lipoxygenase” (G. D. Searle & Co., priority 1987, dated 1989):

What was measured:
5-lipoxygenase = molecular target: T1, 5-lipoxygenase (Rattus norvegicus, UniProt P12527); assay: Inhibition of 5-lipoxygenase, in vitro (5-HETE synthesis, RBL-1 homogenate supernatant); assay type: biochemical; settings: RBL-1 100,000×g supernatant, [1-14C]-arachidonic acid and Ca++, 5-HETE by TLC; initial screen 1×10^-4 M
T1 construct: supernatant fraction of Rat Basophilic Leukemia Cell Homogenate (RBL-1) serves as a 5-lipoxygenase enzyme source; endogenous in cells; host or cells: RBL-1 (rat basophilic leukemia) cells, 100,000×g supernatant of homogenate
T1 sequence (P12527 1-673): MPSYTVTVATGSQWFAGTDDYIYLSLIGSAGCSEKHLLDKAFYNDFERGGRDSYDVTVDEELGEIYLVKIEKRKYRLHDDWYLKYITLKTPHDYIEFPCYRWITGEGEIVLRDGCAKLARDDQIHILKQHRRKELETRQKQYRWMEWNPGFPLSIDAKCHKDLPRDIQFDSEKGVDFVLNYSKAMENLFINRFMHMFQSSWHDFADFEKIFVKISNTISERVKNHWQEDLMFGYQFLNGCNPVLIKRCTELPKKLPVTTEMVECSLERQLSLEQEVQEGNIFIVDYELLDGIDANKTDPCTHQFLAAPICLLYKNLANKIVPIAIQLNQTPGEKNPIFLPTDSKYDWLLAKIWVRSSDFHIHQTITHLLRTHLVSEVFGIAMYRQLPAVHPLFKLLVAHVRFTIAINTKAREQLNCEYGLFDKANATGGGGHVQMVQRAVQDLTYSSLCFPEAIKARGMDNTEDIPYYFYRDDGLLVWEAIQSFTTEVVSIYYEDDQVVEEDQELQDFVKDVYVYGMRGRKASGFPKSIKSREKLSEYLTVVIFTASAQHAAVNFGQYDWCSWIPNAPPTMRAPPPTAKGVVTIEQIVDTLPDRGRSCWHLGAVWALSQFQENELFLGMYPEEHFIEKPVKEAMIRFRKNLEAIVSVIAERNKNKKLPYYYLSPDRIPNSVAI
Experimental: The compounds of the invention are evaluated with respect to 5-lipoxygenaseinhibition according to the following assay procedure.
Inhibition of 5-lipoxygenase, in vitro: anti-inflammatory, anti-allergy activities. The 100,000×g supernatant fraction of Rat Basophilic Leukemia Cell Homogenate (RBL-1) serves as a 5-lipoxygenase enzyme source. The enzyme is incubated with [1-^14 C)-arachidonic acid and Ca++ in the presence and absence of test compound. The product of 5-lipoxygenase, 5-hydroxyeicosatetraenoic acid (5-HETE), is separated by thin-layer chromatography and measured by radioactivity. A compound inhibiting 5-HETE synthesis by 30% or more is considered active at that concentration.

[1] = versus histamine; cited from earlier work

Row | Structure (SMILES) | IC50 (5-lipoxygenase) | other results
1 | CCCCCSc1cc(C(C)(C)C)c(O)c(C(C)(C)C)c1 [Example 3, 2,6-bis(1,1-dimethylethyl)-4-(pentylthio)phenol] | 1.2 µM | 
2 | CC(C)(C)c1cc(S(C)(=O)=O)cc(C(C)(C)C)c1O [Example 7, 2,6-bis(1,1-dimethylethyl)-4-(methylsulfonyl)phenol] |  | 5-Lipoxygenase Inhibition, in vitro, IC50 (5-lipoxygenase): Inactive
3 | CC(C)Sc1cc(C(C)(C)C)c(O)c(C(C)(C)C)c1 [Example 4, 2,6-bis(1,1-dimethylethyl)-4-[(1-methylethyl)thio]-phenol] | 1.3 µM | 
4 | CCCCC/C=C\C\C=C/C=C/C=C/[C@@H](SC[C@H](NC(=O)CC[C@H](N)C(=O)O)C(=O)NCC(=O)O)[C@@H](O)CCCC(=O)O [LTC4] |  | potency relative to histamine in causing long lasting bronchoconstricting effects [1]: at least 100 times
5 | C[S+]([O-])c1cc(C(C)(C)C)c(O)c(C(C)(C)C)c1 (centres unmarked) [Example 6, 2,6-bis(1,1-dimethylethyl)-4-(methylsulfinyl)phenol] | 100 µM | 
6 | CSc1cc(C(C)(C)C)c(O)c(C(C)(C)C)c1 [Example 5, 2,6-bis(1,1-dimethylethyl)-4-(methylthio)phenol] | 0.58 µM | 

The next lines start with results.

Row | IC50 (5-lipoxygenase) | Structure (SMILES) | other results
7 | 100 µM | COc1c(C(C)(C)C)cc(SC)cc1C(C)(C)C [Example 8, 2,6-bis(1,1-dimethylethyl)-1-methoxy-4-(methylthio)benzene] | 
8 | 11 µM | CSc1c(O)c(C(C)(C)C)cc(C(C)(C)C)c1O [Example 9, 4,6-bis(1,1-dimethylethyl)-2-(methylthio)-1,3-benzenediol] | 
